Results taken from US10118935B2, “Melampomagnolide B dimers” (priority 2014, dated 2018).

Columns and labels:
RPMI-8226 = assay: NCI 60 cell line five dose, Leukemia
NCI-H23 = assay: NCI 60 cell line five dose, Non-Small Cell Lung Cancer
M14 = assay: NCI 60 cell line five dose, Melanoma
HCC-2998 = assay: NCI 60 cell line five dose, Colon Cancer
LOX IMVI = assay: NCI 60 cell line five dose, Melanoma
OVCAR-5 = assay: NCI 60 cell line five dose, Ovarian Cancer
CCRF-CEM = assay: NCI 60 cell line five dose, Leukemia
MOLT-4 = assay: NCI 60 cell line five dose, Leukemia
A498 = assay: NCI 60 cell line five dose, Renal Cancer
BT-549 = assay: NCI 60 cell line five dose, Breast Cancer
786-0 = assay: NCI 60 cell line five dose, Renal Cancer
SK-OV-3 = assay: NCI 60 cell line five dose, Ovarian Cancer

With C=C1C(=O)O[C@H]2[C@H]1CC/C(COC(=O)NCCCCCCCCNC(=O)OC/C1=C/CC[C@@]3(C)O[C@H]3[C@H]3OC(=O)C(=C)[C@@H]3CC1)=C\CC[C@@]1(C)O[C@@H]21 [JVM 3-62, bis(((1aR,7aS, 10aS, 10bS, E)-1a-Methyl-8-methylene-9-oxo-1a,2,3,6,7,7a,8,9,10a,10b-decahydrooxireno[2′,3′:9,10]cyclodeca[1,2-b]furan-5-yl)methyl)octane-1,8-diyldicarbamate] the “Percent Growth” value (RPMI-8226; Log10 Concentration −4.0) was −38%, the “Percent Growth” value (RPMI-8226; Log10 Concentration −5.0) was −45% and the “Percent Growth” value (RPMI-8226; Log10 Concentration −6.0) was −13%. The “Percent Growth” value (RPMI-8226; Log10 Concentration −7.0) was 92%, the “Percent Growth” value (RPMI-8226; Log10 Concentration −8.0) was 98% and the GI50 (RPMI-8226; molar) was 0.25 µM. The TGI (RPMI-8226; molar) was 7.45E−7, the CC50 (RPMI-8226; read-out: LC50, molar) was greater than 100 µM and the “Percent Growth” value (NCI-H23; Log10 Concentration −4.0) was −78%. For the same compound, the “Percent Growth” value (NCI-H23; Log10 Concentration −5.0) was −85%, the “Percent Growth” value (NCI-H23; Log10 Concentration −6.0) was 27% and the “Percent Growth” value (NCI-H23; Log10 Concentration −7.0) was 100%. The “Percent Growth” value (NCI-H23; Log10 Concentration −8.0) was 100%, the GI50 (NCI-H23; molar) was 0.485 µM and the TGI (NCI-H23; molar) was 1.74E−6. The CC50 (NCI-H23; read-out: LC50, molar) was 4.86 µM, the “Percent Growth” value (M14; Log10 Concentration −4.0) was −76% and the “Percent Growth” value (M14; Log10 Concentration −5.0) was −71%. For the same compound, the “Percent Growth” value (M14; Log10 Concentration −6.0) was −10%, the “Percent Growth” value (M14; Log10 Concentration −7.0) was 95% and the “Percent Growth” value (M14; Log10 Concentration −8.0) was 95%. It also gave a GI50 (M14; molar) of 0.272 µM, a TGI (M14; molar) of 8.00E−7 and a CC50 (M14; read-out: LC50, molar) of 4.53 µM. For the same compound, the “Percent Growth” value (HCC-2998; Log10 Concentration −4.0) was −92%, the “Percent Growth” value (HCC-2998; Log10 Concentration −5.0) was −93% and the “Percent Growth” value (HCC-2998; Log10 Concentration −6.0) was 63%. The “Percent Growth” value (HCC-2998; Log10 Concentration −7.0) was 98%, the “Percent Growth” value (HCC-2998; Log10 Concentration −8.0) was 100% and the GI50 (HCC-2998; molar) was 1.2 µM. The TGI (HCC-2998; molar) was 2.52E−6, the CC50 (HCC-2998; read-out: LC50, molar) was 5.28 µM and the “Percent Growth” value (LOX IMVI; Log10 Concentration −4.0) was −81%. For the same compound, the “Percent Growth” value (LOX IMVI; Log10 Concentration −5.0) was −90%, the “Percent Growth” value (LOX IMVI; Log10 Concentration −6.0) was −69% and the “Percent Growth” value (LOX IMVI; Log10 Concentration −7.0) was 90%. The “Percent Growth” value (LOX IMVI; Log10 Concentration −8.0) was 98%, the GI50 (LOX IMVI; molar) was 0.178 µM and the CC50 (LOX IMVI; read-out: LC50, molar) was 0.761 µM. For the same compound, the “Percent Growth” value (OVCAR-5; Log10 Concentration −4.0) was −77%, the “Percent Growth” value (OVCAR-5; Log10 Concentration −5.0) was −80% and the “Percent Growth” value (OVCAR-5; Log10 Concentration −6.0) was −4%. For the same compound, the “Percent Growth” value (OVCAR-5; Log10 Concentration −7.0) was 91%, the “Percent Growth” value (OVCAR-5; Log10 Concentration −8.0) was 92% and the GI50 (OVCAR-5; molar) was 0.269 µM. For the same compound, the TGI (OVCAR-5; molar) was 9.12E−7, the CC50 (OVCAR-5; read-out: LC50, molar) was 4.04 µM and the “Percent Growth” value (CCRF-CEM; Log10 Concentration −4.0) was −44%. The “Percent Growth” value (CCRF-CEM; Log10 Concentration −5.0) was −45%, the “Percent Growth” value (CCRF-CEM; Log10 Concentration −6.0) was −8% and the “Percent Growth” value (CCRF-CEM; Log10 Concentration −7.0) was 89%. For the same compound, the “Percent Growth” value (CCRF-CEM; Log10 Concentration −8.0) was 99%, the GI50 (CCRF-CEM; molar) was 0.255 µM and the CC50 (CCRF-CEM; read-out: LC50, molar) was greater than 100 µM. The “Percent Growth” value (MOLT-4; Log10 Concentration −4.0) was −34%, the “Percent Growth” value (MOLT-4; Log10 Concentration −5.0) was −27% and the “Percent Growth” value (MOLT-4; Log10 Concentration −6.0) was 2%. For the same compound, the “Percent Growth” value (MOLT-4; Log10 Concentration −7.0) was 101%, the “Percent Growth” value (MOLT-4; Log10 Concentration −8.0) was 100% and the GI50 (MOLT-4; molar) was 0.33 µM. For the same compound, the TGI (MOLT-4; molar) was 1.18E−6, the CC50 (MOLT-4; read-out: LC50, molar) was greater than 100 µM and the “Percent Growth” value (A498; Log10 Concentration −4.0) was −83%. For the same compound, the “Percent Growth” value (A498; Log10 Concentration −5.0) was −91%, the “Percent Growth” value (A498; Log10 Concentration −6.0) was 91% and the “Percent Growth” value (A498; Log10 Concentration −7.0) was 104%. The “Percent Growth” value (A498; Log10 Concentration −8.0) was 94%, the GI50 (A498; molar) was 1.69 µM and the TGI (A498; molar) was 3.14E−6. For the same compound, the CC50 (A498; read-out: LC50, molar) was 5.83 µM, the “Percent Growth” value (BT-549; Log10 Concentration −4.0) was −85% and the “Percent Growth” value (BT-549; Log10 Concentration −5.0) was −80%. For the same compound, the “Percent Growth” value (BT-549; Log10 Concentration −6.0) was −14%, the “Percent Growth” value (BT-549; Log10 Concentration −7.0) was 94% and the “Percent Growth” value (BT-549; Log10 Concentration −8.0) was 94%. For the same compound, the GI50 (BT-549; molar) was 0.257 µM, the TGI (BT-549; molar) was 7.48E−7 and the CC50 (BT-549; read-out: LC50, molar) was 3.57 µM. For the same compound, the “Percent Growth” value (786-0; Log10 Concentration −4.0) was −81%, the “Percent Growth” value (786-0; Log10 Concentration −5.0) was −81% and the “Percent Growth” value (786-0; Log10 Concentration −6.0) was −32%. For the same compound, the “Percent Growth” value (786-0; Log10 Concentration −7.0) was 95%, the “Percent Growth” value (786-0; Log10 Concentration −8.0) was 95% and the GI50 (786-0; molar) was 0.244 µM. The CC50 (786-0; read-out: LC50, molar) was 2.93 µM, the “Percent Growth” value (SK-OV-3; Log10 Concentration −4.0) was −100% and the “Percent Growth” value (SK-OV-3; Log10 Concentration −5.0) was 10%. For the same compound, the “Percent Growth” value (SK-OV-3; Log10 Concentration −6.0) was 101%.
